# Reference: patent US20050267071A1, “Inhibitors of coronavirus protease and methods of use thereof” (Fulcrum Pharmaceuticals, Inc., priority 2003, published 2005)
# Molecular target: T1, SARS-associated coronavirus protease 3CL^pro (Severe acute respiratory syndrome coronavirus, UniProt P0C6U8)
# Assay: not given
# Type: binding
row,Structure (SMILES),ΔH (Binding Enthalpy of Selected Compounds to 3CL^pro) [kcal/mol]
1,"O=C(OCc1ccccc1COC(=O)c1cc(B(O)O)cc([N+](=O)[O-])c1)c1cc(B(O)O)cc([N+](=O)[O-])c1 [FL-136, 3-Borono-5-nitrobenzoic acid 1,2-benzenedimethanol ester]",-9.2
2,"O=C(Oc1ccc(OC(=O)c2cc(B(O)O)cc([N+](=O)[O-])c2)c(Cl)c1)c1cc(B(O)O)cc([N+](=O)[O-])c1 [FL-079, 3-Borono-5-nitrobenzoic acid 2-chloro-1,4-phenylene ester]",-1.7
3,"O=C(Oc1cccc(OC(=O)c2cc(B(O)O)cc([N+](=O)[O-])c2)c1)c1cc(B(O)O)cc([N+](=O)[O-])c1 [FL-106, 3-Borono-5-nitrobenzoic acid 1,3-phenylene ester]",-5.3
4,"O=C(Oc1ccc(OC(=O)c2cc(B(O)O)cc([N+](=O)[O-])c2)cc1)c1cc(B(O)O)cc([N+](=O)[O-])c1 [FL-078, 3-Borono-5-nitrobenzoic acid 1,4-phenylene ester]",-4.9

# Molecular target: T1, SARS-associated coronavirus protease 3CL^pro
# Assay: biochemical
row,Structure (SMILES),Ki [µM]
1,"Cc1ccc(B(O)O)cc1NC(=O)c1c(Cl)cccc1Cl [FL-110, 3-(2,6-Dichlorobenzamido)-4-methylphenylboronic acid]",37 ± 9.7
2,"O=C(OCc1cccc([N+](=O)[O-])c1)c1cc(B(O)O)cc([N+](=O)[O-])c1 [FL-094, 3-(3-Nitrobenzyloxycarbonyl)-5-nitrophenylboronic acid]",39 ± 5
3,"O=C(OCc1ccccc1COC(=O)c1cc(B(O)O)cc([N+](=O)[O-])c1)c1cc(B(O)O)cc([N+](=O)[O-])c1 [FL-136, 3-Borono-5-nitrobenzoic acid 1,2-benzenedimethanol ester]",8 ± 1.7
4,"O=C(Oc1ccccc1F)c1cc(B(O)O)cc([N+](=O)[O-])c1 [FL-081, 3-(2-Fluorophenoxycarbonyl)-5-nitrophenylboronic acid]",179 ± 70
5,"O=C(Oc1c(Cl)cccc1[N+](=O)[O-])c1ccc(B(O)O)cc1F [FL-104, 4-(2-Chloro-6-nitrophenoxycarbonyl)-3-fluorophenylboronic acid]",18 ± 1
6,"O=C(Oc1ccc(OC(=O)c2cc(B(O)O)cc([N+](=O)[O-])c2)c(Cl)c1)c1cc(B(O)O)cc([N+](=O)[O-])c1 [FL-079, 3-Borono-5-nitrobenzoic acid 2-chloro-1,4-phenylene ester]",23.7 ± 3
7,"O=C(OCc1ccccc1)c1cc(B(O)O)cc([N+](=O)[O-])c1 [FL-1201, 3-Benzyloxycarbonyl-5-nitrophenylboronic acid]",35.8 ± 11.5
8,"O=C(Oc1cc(=O)oc2ccccc12)c1cc(B(O)O)cc([N+](=O)[O-])c1 [FL-133, 3-(4-Coumarinoxycarbonyl)-5-nitrophenylboronic acid]",> 1000
9,"O=C(Nc1cc(B(O)O)ccc1Cl)c1c(Cl)cccc1Cl [FL-109, 3-(2,6-Dichlorobenzamido)-4-chlorophenylboronic acid]",61.5 ± 19.7
10,"O=C(Oc1cccc(B(O)O)c1)c1ccc(C(=O)Oc2cccc(B(O)O)c2)cc1 [FL-156, 1,4-Benzenedicarboxylic acid, di 3-boronophenyl ester]",33 ± 9.4
11,"Nc1cc(B(O)O)cc(C(=O)O)c1 [FL-088, 3-amino-5-carboxylphenylboronic acid]",63 ± 14
12,"O=C(NCc1ccccc1)c1cccc(B(O)O)c1 [FL-1010, 3-(Benzylcarbamoyl)phenylboronic acid]",84 ± 45
13,"O=C(Oc1cccc(OC(=O)c2cc(B(O)O)cc([N+](=O)[O-])c2)c1)c1cc(B(O)O)cc([N+](=O)[O-])c1 [FL-106, 3-Borono-5-nitrobenzoic acid 1,3-phenylene ester]",8.5 ± 0.5
14,"O=C(Oc1cc(OC(=O)c2cc(B(O)O)cc([N+](=O)[O-])c2)cc(OC(=O)c2cc(B(O)O)cc([N+](=O)[O-])c2)c1)c1cc(B(O)O)cc([N+](=O)[O-])c1 [FL-164, Tris-(3-borono-5-nitrobenzoic acid), 1,3,5-trihydroxybenzene ester]",79.6 ± 14.1
15,"O=C(OCc1cccc(B(O)O)c1)c1cc(B(O)O)cc([N+](=O)[O-])c1 [FL-101, 3-(3-Boronobenzyloxycarbonyl)-5-nitrophenylboronic acid]",21.7 ± 3.27
16,"O=C(Oc1ccccc1)c1cc(B(O)O)cc([N+](=O)[O-])c1 [FL-092, 3-Phenoxycarbonyl-5-nitrophenylboronic acid]",15.5 ± 6.5
17,"O=C(Oc1c(Cl)cccc1Cl)c1cc(B(O)O)cc([N+](=O)[O-])c1 [FL-080, 3-(2,6-Dichlorophenoxycarbonyl)-5-nitrophenylboronic acid]",62 ± 6
18,"O=C(OC(C(=O)c1ccccc1)c1ccccc1)c1cc(B(O)O)cc([N+](=O)[O-])c1 (stereo not shown) [FL-097, 3-(1-Benzoyl-1-Phenylmethoxycarbonyl)-5-nitrophenylboronic acid]",153 ± 58
19,"O=C(Oc1c(Cl)c(Cl)c(OC(=O)c2cc(B(O)O)cc([N+](=O)[O-])c2)c(Cl)c1Cl)c1cc(B(O)O)cc([N+](=O)[O-])c1 [FL-141, 3-Borono-5-nitrobenzoic acid 2,3,5,6-tetrachloro-1,4-phenylene ester]",39.3 ± 11.7
20,"CCOC(=O)[C@H](Cc1ccccc1)NC(=O)c1cc(B(O)O)cc([N+](=O)[O-])c1 [FL-170, 3-borono-5-nitrobenzoyl-L-phenylalanine ethyl ester]",10.6 ± 7.5
21,"O=C(Oc1ccc(F)cc1)c1cc(B(O)O)cc([N+](=O)[O-])c1 [FL-085, 3-(4-Fluorophenoxycarbonyl)-5-nitrophenylboronic acid]",95 ± 30
22,"O=C(OCCN(CCOC(=O)c1cc(B(O)O)cc([N+](=O)[O-])c1)CCOC(=O)c1cc(B(O)O)cc([N+](=O)[O-])c1)c1cc(B(O)O)cc([N+](=O)[O-])c1 [FL-165, Tris(3-borono-5-nitrobenzoic acid), triethanolamine ester]",50.6 ± 21.5
23,"O=C(Oc1c(F)cccc1F)c1cc(B(O)O)cc([N+](=O)[O-])c1 [FL-082, 3-(2,6-Difluorophenoxycarbonyl)-5-nitrophenylboronic acid]",158 ± 109

row,Structure (SMILES),Ki [µM]
1,"O=C(Oc1ccccc1Br)c1cc(B(O)O)cc([N+](=O)[O-])c1 [FL-096, 3-(2-Bromophenoxycarbonyl)-5-nitro-phenylboronic acid]",137 ± 61
2,"O=C(Oc1cccnc1Cl)c1cc(B(O)O)cc([N+](=O)[O-])c1 [FL-089, 3-(2-Chloro-3-pyridyloxycarbonyl)-5-nitrophenylboronic acid]",241 ± 85
3,"O=C(Oc1ccc(OC(=O)c2ccc(B(O)O)cc2F)c(Cl)c1)c1ccc(B(O)O)cc1F [FL-103, 4-Borono-2-fluorobenzoic acid 2-chloro-1,4-phenylene ester]",39.1 ± 2.1
4,"O=C(O)c1cc(NC(=O)c2ccccc2F)cc(B(O)O)c1 [FL-083, 3-(2-Fluorobenzamido)-5-carboxylphenylboronic acid]",104 ± 38
5,"O=C(Oc1ccncc1)c1cc(B(O)O)cc([N+](=O)[O-])c1 [FL-087, 3-(4-pyridyloxycarbonyl)-5-nitro-phenylboronic acid]",66 ± 2
6,O=C(OCc1c(Cl)cccc1Cl)c1cc(B(O)O)cc([N+](=O)[O-])c1 [FL-086],> 1000
7,"CC(C)(C)c1cc(OC(=O)c2cc(B(O)O)cc([N+](=O)[O-])c2)ccc1OC(=O)c1cc(B(O)O)cc([N+](=O)[O-])c1 [FL-169, 3-Borono-5-nitrobenzoic acid, 2-tert-butyl-1,4-phenylene ester]",32.7 ± 2.5
8,"O=C(Oc1cccc(B(O)O)c1)c1c(Cl)cccc1Cl [FL-099, 3-(2,6-dichlorophenylcarbonyloxy)phenyl boronic acid]",> 1000
9,"O=C(OCc1cccc(Cl)c1)c1cc(B(O)O)cc([N+](=O)[O-])c1 [FL-095, 3-(3-Chlorobenzyloxycarbonyl)-5-nitrophenylboronic acid]",91.8 ± 8.8
10,"O=C(OCc1cccc2ccccc12)c1cc(B(O)O)cc([N+](=O)[O-])c1 [FL-148, 3-(1-Naphthalenemethoxycarbonyl)-5-nitrophenylboronic acid]",21.5 ± 8.7
11,"O=C(Oc1cccc(B(O)O)c1)c1cc(B(O)O)cc([N+](=O)[O-])c1 [FL-100, 3-(3-Boronophenoxycarbonyl)-5-nitrophenylboronic acid]",190 ± 100
12,"O=C(Oc1ccc(OC(=O)c2cc(B(O)O)cc([N+](=O)[O-])c2)c2ccccc12)c1cc(B(O)O)cc([N+](=O)[O-])c1 [FL-167, 3-Borono-5-nitrobenzoic acid, 1,4-dihydroxynaphthalene ester]",10.2 ± 2.2
13,"O=C(Oc1ccc2ccccc2c1)c1cc(B(O)O)cc([N+](=O)[O-])c1 [FL-151, 3-(2-Naphthoxycarbonyl)-5-nitrophenylboronic acid]",16.6 ± 6
14,"O=C(OC1c2ccccc2CC1Br)c1cc(B(O)O)cc([N+](=O)[O-])c1 (stereo not shown) [FL-090, 3-(2-Bromo-1-indanoxycarbonyl)-5-nitrophenylboronic acid]",> 1000
15,"O=C(Nc1cc(B(O)O)cc([N+](=O)[O-])c1)c1c(Cl)cccc1Cl [FL-108, 3-(2,6-Dichlorobenzamido)-5-nitrophenylboronic acid]",15 ± 7
16,"O=[N+]([O-])c1cc(NS(=O)(=O)c2ccccc2)cc(B(O)O)c1 [FL-114, 3-benzenesulfonamido-5-nitrophenylboronic acid]",49.8 ± 4.4
17,"O=C(Oc1c(Cl)cc(Cl)cc1Cl)c1cc(B(O)O)cc([N+](=O)[O-])c1 [FL-139, 3-(2,4,6-Trichlorophenoxycarbonyl)-5-nitro-phenylboronic acid]",73.3 ± 38
18,"O=C(O)c1cc(O)cc(B(O)O)c1 [FL-172, (3-carboxy-5-hydroxyphenyl)boronic acid]",3.5 ± 3.9
19,"O=C(Oc1ccc(OC(=O)c2cc(B(O)O)cc([N+](=O)[O-])c2)cc1)c1cc(B(O)O)cc([N+](=O)[O-])c1 [FL-078, 3-Borono-5-nitrobenzoic acid 1,4-phenylene ester]",6.7 ± 0.9
20,"O=C(Oc1c(Cl)cc(Cl)cc1[N+](=O)[O-])c1cc(B(O)O)cc([N+](=O)[O-])c1 [FL-107, 3-(2,4-Dichloro-6-nitro-phenoxycarbonyl)-5-nitro-phenylboronic acid]",6.9 ± 0.3
21,"O=C(OC(c1ccccc1)c1ccccc1)c1cc(B(O)O)cc([N+](=O)[O-])c1 [FL-149, 3-(1,1-Diphenylmethoxycarbonyl)-5-nitrophenylboronic acid]",313 ± 170
22,"O=C(Nc1cc(B(O)O)cc([N+](=O)[O-])c1)c1ccccc1F [FL-084, 3-(2-Fluorobenzamido)-5-nitrophenylboronic acid]",> 1000
